Patent US20060194819A1, “Activation specific inhibitors of nf-kb and method of treating inflammatory processes in cardio-vascular diseases” (PROCORDE GMBH, priority 2003, published 2006)

Legend:
[1] = target: T1, IKK-complex (Homo sapiens, UniProt O14920+O15111+Q9Y6K9); assay: In vitro/cell free kinase assay: IKK-complex immunoprecipitated from TNF alpha stimulated HeLa cells, drugs added afterwards, alpha screen; assay type: biochemical
T1 construct: IKK-complex was immunoprecipitated with anti-NEMO-antibody; endogenous in cells; host or cells: HeLa
Protocol: In vitro/cell free kinase assay protocol: HeLa cells were maintained in Dulbecco's modified Eagle's medium (Invitrogen) supplemented with 10% fetal bovine serum, 2 mM L-glutamine, penicillin (50 units/ml) and streptomycin (50 μg/ml). 24 h before treatment with TNF alpha HeLa cells were plated at a density of 1×10^7 per well in 175-mm cell culture dishes to 90% confluences.
The cells were stimulated with 20 ng/ml TNF alpha (Roche) without drugs. After 7 min the cells were washed twice with ice cold PBS followed by scraping and transferring into a 1.5 ml micro centrifuge tube. […] 6.6 μl of detection-buffer (20 mM Hepes pH 7.5, 100 mM NaCl, 1% Tween, 0.1 mM BSA, 50 μg/ml Protein A-Acceptor beads, 250 μg/ml Streptavidin-Donor beads (both Perkin-Elmer), 4 nM anti-phospho-IKBα-antibody (Santa Cruz Biotechnology) was dispensed to each well. After incubation for 1.5 h the plate was measured by alpha screen reader (Perkin Elmer).

[2] = Serum levels after single dose IV application in rats, mass spectroscopy; assay type: in vivo; conditions: 27.5 and 55 μg IV, 2 and 20 minutes
Protocol: COM 56 was diluted in saline-buffer to 100 μM and 200 μM in a volume of 200 μL. The probe was administered intravenously in rats. After 2 min and 20 min a blood probe was taken from the right carotid artery. The blood probes were centrifuged by 2500 g for 3 min and the supernatant, the serum component, were analysed by mass spectroscopy.

[3] = system: systemic TNF alpha release; assay: LPS induced systemic inflammation in rats, serum TNF alpha by ELISA; assay type: in vivo; conditions: compound 1 μg/g IV pre-treatment, LPS 0.33 μg/g IV
Protocol: Systemic inflammatory response in rats was induced by lipopolysaccharide (LPS) shock (IV administration of LPS 0.33 μg/g). Inflammatory and inhibition of inflammation by IV administration of compound 56 (1 μg/g) to rats was determined by TNF alphaquantification in […] serum. TNF alpha was detected with an ELISA kit (Pierce) according to the manufacturer's instructions.

[4] = target: T2, IKKα/β binding to NEMO (Homo sapiens, UniProt O14920+O15111+Q9Y6K9); assay: Degradation of the immunoprecipitated IKK-complex after drug treatment in vitro, Western blot; assay type: biochemical; conditions: precipitated IKK-complex incubated 1 h with compound
T2 construct: endogenous in cells; host or cells: HeLa (immunoprecipitate with anti-NEMO antibody on Protein A-Sepharose)
Protocol: After immuno-precipitation with anti-NEMO antibody (Santa Cruz) as described earlier, the precipitated and washed IKK-complex was incubated with different concentrations of IKK inhibitors in 20 mM HEPES, pH 8.0, 10 mM MgCl2, 100 μM Na3VO4, 20 mM-glycerophosphate, 50 mM NaCl, 2 mM dithiothreitol, 0.5 μM phenylmethylsulfonyl fluoride, antipain, aprotinin, leupeptin 0.75 μg/ml each (Sigma). After 1 h treatment the probe was centrifuged at 16000 g for 1 min the supernatant was removed totally and the protein A pellet was resuspended in 1×Laemmli-buffer buffer (2% SDS, 2% 2-Mercaptoethanol, 0.01% Bromophenol blue, 8% Glycerine), heated by 60° C. for 10 min and loaded to a 4-20% polyacrylamid gels (BioRad). After electrophoresis the proteins were transferred to a nitrocellulose membrane using the wet blotting technique. First the membrane was blocked with Roti-Block (Roth) and afterwards incubated with monoclonal antibodies against IKKα (Santa Cruz Biotechnology, used at 1:200 dilution). This incubation was followed by the appropriate horseradish peroxidase-conjugated secondary antibody (Dianova) at 1:10000 dilution. Antibody binding was visualized on x-ray film using the Western blot Chemiluminescent Reagent Detection Kit (Santa Cruz). The x-ray film was scanned and the results were analysed by densitometry by the software AIDA.

T1 sequence (O14920 whole entry): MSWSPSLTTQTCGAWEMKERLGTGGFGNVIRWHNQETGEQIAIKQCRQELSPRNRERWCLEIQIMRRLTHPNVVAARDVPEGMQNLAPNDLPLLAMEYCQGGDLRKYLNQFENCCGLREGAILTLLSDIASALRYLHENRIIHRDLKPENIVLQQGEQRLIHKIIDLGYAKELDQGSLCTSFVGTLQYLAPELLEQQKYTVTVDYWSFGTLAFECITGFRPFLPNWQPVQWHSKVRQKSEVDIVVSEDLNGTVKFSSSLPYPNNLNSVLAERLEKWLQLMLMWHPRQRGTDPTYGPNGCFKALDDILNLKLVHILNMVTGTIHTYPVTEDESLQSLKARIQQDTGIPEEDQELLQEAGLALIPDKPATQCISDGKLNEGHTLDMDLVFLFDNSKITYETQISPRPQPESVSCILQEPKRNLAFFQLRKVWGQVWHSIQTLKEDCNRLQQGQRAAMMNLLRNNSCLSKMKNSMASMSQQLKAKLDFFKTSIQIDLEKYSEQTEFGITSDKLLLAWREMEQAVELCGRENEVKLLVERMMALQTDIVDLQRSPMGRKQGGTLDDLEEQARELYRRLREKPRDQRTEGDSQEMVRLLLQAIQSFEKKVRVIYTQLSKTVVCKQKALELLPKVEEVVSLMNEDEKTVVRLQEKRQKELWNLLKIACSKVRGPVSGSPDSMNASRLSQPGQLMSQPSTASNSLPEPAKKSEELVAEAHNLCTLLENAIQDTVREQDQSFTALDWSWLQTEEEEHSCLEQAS
T1 sequence (O15111 whole entry): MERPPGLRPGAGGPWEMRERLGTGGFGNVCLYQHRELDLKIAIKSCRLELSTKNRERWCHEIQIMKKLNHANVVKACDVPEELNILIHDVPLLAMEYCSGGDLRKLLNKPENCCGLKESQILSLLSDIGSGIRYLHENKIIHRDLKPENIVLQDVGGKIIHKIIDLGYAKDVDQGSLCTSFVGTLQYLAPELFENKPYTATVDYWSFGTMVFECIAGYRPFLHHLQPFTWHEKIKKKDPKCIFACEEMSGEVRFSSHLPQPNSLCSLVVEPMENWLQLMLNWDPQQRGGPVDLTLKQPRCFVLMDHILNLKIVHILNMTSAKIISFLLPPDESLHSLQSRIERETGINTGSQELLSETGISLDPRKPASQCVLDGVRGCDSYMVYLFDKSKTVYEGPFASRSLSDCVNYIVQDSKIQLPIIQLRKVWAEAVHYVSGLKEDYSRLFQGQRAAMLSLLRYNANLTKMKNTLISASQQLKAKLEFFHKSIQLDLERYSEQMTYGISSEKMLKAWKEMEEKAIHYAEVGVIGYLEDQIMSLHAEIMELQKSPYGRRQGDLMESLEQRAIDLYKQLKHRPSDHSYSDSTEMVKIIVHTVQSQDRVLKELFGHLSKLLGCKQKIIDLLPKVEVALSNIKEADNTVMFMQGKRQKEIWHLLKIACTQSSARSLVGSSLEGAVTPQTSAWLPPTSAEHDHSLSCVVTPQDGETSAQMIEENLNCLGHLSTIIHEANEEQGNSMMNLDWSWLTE
T1 sequence (Q9Y6K9 whole entry): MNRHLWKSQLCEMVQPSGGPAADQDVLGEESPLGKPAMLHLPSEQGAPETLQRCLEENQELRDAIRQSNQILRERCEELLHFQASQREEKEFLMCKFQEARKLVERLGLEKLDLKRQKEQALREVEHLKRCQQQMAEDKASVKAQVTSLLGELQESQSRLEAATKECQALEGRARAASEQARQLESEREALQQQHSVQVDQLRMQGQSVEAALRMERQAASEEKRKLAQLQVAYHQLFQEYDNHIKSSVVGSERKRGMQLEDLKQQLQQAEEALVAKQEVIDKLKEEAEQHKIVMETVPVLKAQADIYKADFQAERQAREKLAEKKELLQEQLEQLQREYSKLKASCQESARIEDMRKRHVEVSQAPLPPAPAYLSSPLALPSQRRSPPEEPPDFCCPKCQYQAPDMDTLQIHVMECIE
T2 sequence (Q9Y6K9 whole entry): as above
T2 sequence (O15111 whole entry): as the sequence (O15111 whole entry) above
T2 sequence (O14920 whole entry): as the sequence (O14920 whole entry) above

CCOC(=O)C1=C(C)N=c2s/c(=C/c3ccc(-c4cccc(C(=O)O)c4)o3)c(=O)n2C1c1ccc(Cl)cc1 (stereo not drawn) [COM 56, 2-[5-(3-Carboxyphenyl)-furan-2-ylmethylene]-5-(4-chlorophenyl)-7-methyl-3-oxo-2,3-dihydro-5H-thiazolo[3,2-a]pyrimidine-6-carboxylic acid ethyl ester]
potency in the inhibition of IKK activity compared to COM 73 ([1]; cell-free assay): significantly higher | inhibition of IKK activity in cell-free assay ([1]; increasing concentrations on isolated IKK complex): dose-dependently inhibited | serum levels after single IV application [2]: considerable serum levels | serum levels after single IV application ([2]; listed as compound 56): positive serum probes | TNF alpha concentrations in rat serum after LPS [3]: significantly inhibited | disruption of the IKK complex (NEMO binding to IKK-alpha/beta) in vitro [4]: dose-dependently disrupted
